The results in this text go back to US7371555B2, “Polypeptides having α-H-α-amino acid amide racemase activity and nucleic acids encoding the same” (DSM IP Assets B.V., priority 2002, dated 2008).

Test [1] deals with α-H-α-amino acid amide racemase from Ochrobactrum anthropi IA. In words: Substrate specificity, CFE from E. coli TOP10/pKEC_AZAR_3 (Example 7). Type of test: biochemical. Conditions: relative to the activity towards D-leucine amide; 75 mM substrate, 20 mM EDTA, pH 8.0, 37° C. On the procedure: Two pre-cultures of E. coli TOP10/pKEC_AZAR—3 (see Example 4) were prepared by inoculation of 2 erlenmeyer flasks with 100 ml of 2*TY medium (10 g/l Yeast extract, 16 g/l Tryptone, 5 g/l NaCl) containing 50 mg/l of kanamycin with 10 μl of a glycerol stock per flask. After overnight cultivation at 28° C. and 200 rpm, the pre-cultures were pooled, and subsequently used to inoculate 2 erlenmeyer flasks each containing 1 l of the same medium. Also these flasks were cultivated at 28° C. and 200 rpm for 16-18 h. Cells were harvested by centrifugation (15 min. at 6,200×g, 4° C.), washed with 20 mM HEPES-NaOH, pH 7.5, pooled, weighed, and resuspended in a solution containing 20 mM HEPES-NaOH, pH 7.5, 20 μM pyridoxal-5-phosphate, and 1.3 mM of dithiothreitol in a 1:3 ratio of wet weight cells to solution. Then, cells were disintegrated by 10 min. sonification with a Soniprep 150 of MSE operated at maximum amplitude using time intervals of 10 sec. (i.e., 10 sec. sonification, 10 sec. cooling) and cooling in ice/acetone. Particles were removed by centrifugation, after which sucrose was added to the cell free extract to a final concentration of 0.25 M. The resulting cell free extract (CFE) was stored in aliquots at −20° C. E. coli TOP10/pBAD/Myc-HisC (Invitrogen) cells were treated in exactly the same way and served as negative control.
The substrate specificity of the α-H-α-amino acid racemase from O. anthropi IA was determined by measuring the racemase activity of the above-mentioned CFE towards a number of enantiomerically pure amino acid amides. Each reaction mixture of 10 ml (including the CFE) contained 50 mM HEPES-NaOH, pH 8.0, 20 μM pyridoxal-5-phosphate, 0.4 mg/ml BSA, 1 mM dithiothreitol, 20 mM EDTA and 75 mM of one of the amino acid amides tested. Reactions were started by the addition of 1 ml of the thawed CFE of E. coli TOP10/pKEC_AZAR—3 or E. coli TOP10/pBAD/Myc-HisC (blank) and were incubated at 37° C. At regular time intervals samples of 1 ml were taken and transferred to vials containing 1 ml of 1M H3PO4 to stop the reaction. After sufficient dilution of the samples in 0.4 M borate buffer pH 9.4, the mixtures obtained were analyzed using HPLC to determine the exact concentrations of the two amino acid and two amino acid amide enantiomers according to the following method.
The initial activity for the different substrates tested was calculated from the linear parts of the progress curves, in which the conversion was plotted against the reaction time. Use of the linear part of the progress curves secured that only samples taken at time points at which the substrate concentration was still sufficiently high, were used for the calculations. The conversion was calculated by dividing the amount of amino acid and amino acid amide formed via the racemase reaction (so with the opposite stereochemistry compared to the substrate molecule) by the total amount of two amino acid enantiomers and the two amino acid amide enantiomers.

The test system of test [2] is partially purified α-H-α-amino acid amide racemase from O. anthropi IA. Put plainly: Substrate specificity of the partially purified racemase (Example 8). The arrangement: tested at 75 mM. It is filed as biochemical, Ochrobactrum anthropi IA. Conditions: relative to the activity towards L-leucine amide; pH 8.0, 37° C. How it is done: The substrate specificity of the O. anthropi IA α-H-α-amino acid amide racemase was determined using the partially purified enzyme preparation obtained by the protocol described above. Reaction mixtures of 1 ml total volume were prepared by mixing 772 μl of 66.6 mM HEPES-NaOH, pH 8.0, 10 μl of 0.1 M dithiothreitol, 18 μl of a solution containing 20 mg/ml BSA and 1 mM pyridoxal-5-phosphate, and 100 μl of a 0.75 M substrate solution, pH 8.0. After equilibration for 5 minutes at 37° C., the reactions were started by the addition of 100 μl of the enzyme solution. Reaction mixtures were incubated at 37° C. without shaking. After regular time intervals, samples of 50 μl were taken and transferred into vials containing 950 μl of 1 M H3PO4 to stop the reaction. After sufficient dilution of the samples in 0.4 M borate buffer pH 9.4, the mixtures obtained were analyzed using HPLC to determine the exact concentrations of two amino acid amide enantiomers according to the method of Example 7.
Initial activity for the different substrates tested was calculated from the linear parts of the progress curves, in which the amount of the amino acid amide enantiomer formed (so with a stereochemistry opposite to the substrate molecule) was plotted against the reaction time.

Test [3] relates to α-H-α-amino acid amide racemase from Arthrobacter nicotianae NCIMB 41126. Put plainly: Substrate specificity, CFE from E. coli DH10B/pAn(1)PLV36D06 (Example 9). Type of test: biochemical. Conditions: relative to the activity towards D-leucine amide; 75 mM substrate, pH 8.0, 37° C. How it is done:
Preparation of the CFE of E. coli DH10B/pAn(1)PLV36D06 was performed as described in Example 7 for E. coli TOP10/pKEC_AZAR—3
Before applying the CFE from E. coli DH10B/pAn(1)PLV36D06 in the reactions with different enantiomerically pure α-H-α-amino acid amides to determine the substrate specificity of the A. nicotianae α-H-α-amino acid amide racemase, the E. coli amidases/aminopeptidases in this CFE were inhibited by a pre-treatment with an inhibitor cocktail. One tablet of Complete Mini Protease Inhibitor Cocktail (Roche Applied Science, Mannheim, Germany) was dissolved in 9 ml of the CFE followed by an incubation of 1 hour at room temperature. Next, reaction mixtures of 10 ml each (including the CFE) were prepared containing 50 mM HEPES-NaOH, pH 8.0, 20 μM pyridoxal-5-phosphate, 0.4 mg/ml BSA, 1 mM dithiothreitol and 75 mM of one of the amino acid amides tested. Reactions were started by the addition of 1 ml of the pre-treated CFE of E. coli DH10B/pAn(1)PLV36D06 or E. coli TOP10/pBAD/Myc-HisC (blank) and were incubated at 37° C. At regular time intervals samples of 1 ml were taken and transferred to vials containing 1 ml of 1M H3PO4 to stop the reaction. After sufficient dilution of the samples in 0.4 M borate buffer pH 9.4, the mixtures obtained were analyzed using HPLC to determine the exact concentrations of the two amino acid and two amino acid amide enantiomers according to the method of Example 7.

In test [4] the test system is E. coli clones with plasmid encoded A. nicotianae NCIMB 41126 α-H-α-amino acid amide racemase activity. In words: Confirmation of potential positive clones of the A. nicotianae NCIMB 41126 gene library. It is filed as cell-based, Arthrobacter nicotianae NCIMB 41126. Conditions: 70 mM substrate, 10 μM pyridoxal-5-phosphate, 20 h at 30° C. On the procedure:
Of all 32 potential positive clones identified in the screening, material from the masterplates was used to inoculate 3 ml of liquid screening medium containing 50 mg/l kanamycin. After growth for 2 days at 30° C., cells were collected by centrifuging 2 ml of these cell cultures. Then the cell pellets were washed four times in 25 mM Tris-HCl buffer, pH 7.5. Subsequently, the cell pellets were resuspended in 100 μl substrate solution containing 70 mM of D-phenylalanine amide, or D-leucine amide, or D-valine amide in 50 mM Tris-HCl, pH 7.5 and 1 mM MnCl2. After incubation for 20 h at 30° C., the reactions were stopped by the addition of 100 μl of 0.15 M HCl, after which the reaction mixtures were analyzed by the HPLC method described in Example 1.
Confirmation of both potential positive clones was done according to the protocol given in Example 3, with the exception that all 3 substrate solutions used contained 10 μM of pyridoxal-5-phosphate.

As for `CCC[C@@H](N)C(N)=O` [D-norvaline amide], the Rel. initial activity in test [1] is given as 94%; in test [2] it was 341%; in test [3], 107%.
In the same order, the values of `CC[C@H](N)C(N)=O` [L-2-aminobutyric acid amide] are 203%, 641% and 76%.
On to `CC(C)[C@@H](N)C(N)=O` [D-valine amide], for which the “conversion of D-amide into L-acid” value in test [4] is on record as “significantly converted”. The Rel. initial activity in test [3] was determined as 45%.
